Measured values as given in the NIST ThermoML archive (doi:10.1021/je900954y).

Columns and labels:
[1] = 101 kPa, Liquid
[2] = xn = mol fraction of the nth substance listed; conditions: 101 kPa, Liquid

OCCO [1,2-ethanediol]
[1]
Conditions	mass density [kg/m3]	viscosity [mPa·s]
298.15 K	1109.2	15.41
303.15 K	1104.2	12.73
308.15 K	1100.6	10.66

OCCO [1,2-ethanediol] + CCC(C)O
[2], x2 = 0
Conditions	mass density [kg/m3]	viscosity [mPa·s]
298.15 K	1109.2	15.41
303.15 K	1104.2	12.73
308.15 K	1100.6	10.66

CC(O)CO (stereo not drawn) [1,2-propanediol]
[1]
Conditions	mass density [kg/m3]	viscosity [mPa·s]
298.15 K	1033.1	45.44
303.15 K	1029.9	33.99
308.15 K	1025.4	26.34

CC(O)CO (stereo not drawn) [1,2-propanediol] + CCCCCCCO
[2]
Conditions	mass density, 298.15 K [kg/m3]	mass density, 303.15 K [kg/m3]	mass density, 308.15 K [kg/m3]	viscosity, 298.15 K [mPa·s]	viscosity, 303.15 K [mPa·s]	viscosity, 308.15 K [mPa·s]
x2 = 0	1033.1	1029.9	1025.4	45.44	33.99	26.34
x2 = 0.1383	980.3	976.4	972	27.34	20.69	16.05
x2 = 0.3163	928.8	925	920.8	15.9	12.8	9.977
x2 = 0.386	912.5	908.6	904.6	13.64	10.88	8.925
x2 = 0.4049	908.3	904.4	900.4	13.19	10.75	8.567
x2 = 0.4673	895.4	891.6	887.6	11.94	9.431	7.663
x2 = 0.6097	869.7	866	862.2	9.882	7.655	6.373
x2 = 0.7341	851	847.3	843.7	8.159	6.401	5.414
x2 = 0.8294	838.5	834.9	831.3	7.132	5.815	4.963

CC(O)CO (stereo not drawn) [1,2-propanediol] + CCCCCCO
[2]
Conditions	mass density, 298.15 K [kg/m3]	mass density, 303.15 K [kg/m3]	mass density, 308.15 K [kg/m3]	viscosity, 298.15 K [mPa·s]	viscosity, 303.15 K [mPa·s]	viscosity, 308.15 K [mPa·s]
x2 = 0	1033.1	1029.9	1025.4	45.44	33.99	26.34
x2 = 0.0771	1004.5	1000.9	996.1	33.27	24.28	20.05
x2 = 0.1213	989.9	986.2	981.6	28.44	20.82	17.27
x2 = 0.2425	953.6	949.9	945.8	18.56	13.93	11.97
x2 = 0.3311	930.7	927	923.1	14.38	11.28	9.627
x2 = 0.5225	888.7	884.9	881.3	9.486	8.063	6.428
x2 = 0.5377	885.7	881.9	878.2	9.057	7.837	6.308
x2 = 0.6309	868.9	865.1	861.5	7.625	6.725	5.322
x2 = 0.7444	850.3	846.4	842.9	6.313	5.206	4.494
x2 = 0.8611	833.3	829.4	826	5.324	4.61	3.935

CCC(C)O (stereo not drawn) [butan-2-ol]
[1]
Conditions	mass density [kg/m3]	viscosity [mPa·s]
298.15 K	802.4	2.999
303.15 K	798.7	2.499
308.15 K	793.8	2.475

CCC(C)O (stereo not drawn) [butan-2-ol] + OCCO
[2]
Conditions	mass density, 298.15 K [kg/m3]	mass density, 303.15 K [kg/m3]	mass density, 308.15 K [kg/m3]	viscosity, 298.15 K [mPa·s]	viscosity, 303.15 K [mPa·s]	viscosity, 308.15 K [mPa·s]
x1 = 0.0514	1085.8	1081.8	1078.5	14.67	12.2	10.24
x1 = 0.1049	1062.7	1059.1	1055.6	13.78	11.58	9.795
x1 = 0.1847	1029.6	1025.9	1022.8	12.29	10.43	8.898
x1 = 0.261	1000.3	996.7	993.4	10.82	9.184	7.897
x1 = 0.3516	968.3	964.6	960.9	9.089	7.76	6.681
x1 = 0.4562	934.5	930.7	926.9	7.352	6.211	5.442
x1 = 0.5039	920.3	916.4	912.5	6.669	5.641	4.96
x1 = 0.6639	876.9	873.1	868.9	4.971	4.182	3.803
x1 = 0.7723	850.9	847.3	842.9	4.301	3.618	3.347
x1 = 0.8751	828.2	824.7	820.1	3.791	3.18	3.034
x1 = 1	802.4	798.7	793.8	2.999	2.499	2.475

CCCCCCCO [heptan-1-ol]
[1]
Conditions	mass density [kg/m3]	viscosity [mPa·s]
298.15 K	818.9	5.914
303.15 K	815.4	5.045
308.15 K	811.9	4.34

CCCCCCCO [heptan-1-ol] + CC(O)CO
[2], x1 = 1
Conditions	mass density [kg/m3]	viscosity [mPa·s]
298.15 K	818.9	5.914
303.15 K	815.4	5.045
308.15 K	811.9	4.34

CCCCCCO [hexan-1-ol]
[1]
Conditions	mass density [kg/m3]	viscosity [mPa·s]
298.15 K	815.4	4.643
303.15 K	811.5	3.999
308.15 K	808.3	3.471

CCCCCCO [hexan-1-ol] + CC(O)CO
[2], x1 = 1
Conditions	mass density [kg/m3]	viscosity [mPa·s]
298.15 K	815.4	4.643
303.15 K	811.5	3.999
308.15 K	808.3	3.471
